Measured values: PMC10377753, “Pharmacokinetic and pharmacodynamic properties of polymyxin B in Escherichia coli and Klebsiella pneumoniae murine infection models” (Journal of Antimicrobial Chemotherapy, 2023)
Structures can show the parent of a compound that is named as a salt. Bridge positions count the residues as written; N and C are the ends. Square brackets hold non-standard residues; d marks the D form. Peptide text beside a SMILES is read from it. * marks the point of attachment. X1 = CC[C@H](C)CCCCC(=O)*; Dab = NCC[C@H](N)C(=O)O

Legend:
[1] = Plasma PK after single subcutaneous dose in infected neutropenic mice, population PK model; assay type: in vivo; settings: for Time up to which plasma levels were detectable: LOQ 0.2 mg/L
Experimental: Mice were injected subcutaneously with a 0.1 mL single dose of polymyxin B 2 h after infection (t = 0). The PK of polymyxin B ranging between 0.5 and 64 mg/kg were determined in two mice per dose level. Mice were separated into two groups, with four dose levels studied in the thigh infection model (0.5, 2, 8, 32 mg/kg) and four dose levels studied in the lung infection model (1, 4, 16, 64 mg/kg). At t = 0, two mice were humanely euthanized to determine the bacterial load in the infected organ at the start of infection. At 10 different timepoints, blood was collected under isoflurane anaesthesia, in K3E EDTA tubes (Sarstedt, Nümbracht, Germany) through orbital sinus bleeding, which was immediately followed by cervical dislocation. The collected blood samples were centrifuged immediately at 15 871 RCF for 5 min at 4°C. Plasma was stored at −80°C until analysis.
Polymyxin B concentrations in plasma, BAL and ultrafiltrates were determined by a validated LC-MS/MS method,[18] with a lower limit of quantification (LOQ) of 0.2 mg/L for plasma and 0.05 mg/L for BAL fluid and ultrafiltrates. In this assay, 0.1 mL of plasma or 0.05 mL of BAL fluid or ultrafiltrates was added to 0.05 mL of drug-free plasma, and was mixed with 0.75 mL of phosphate buffer (pH 7.2) and 0.01 mL of internal standard (colistin sulphate, Merck KGaA, Darmstadt, Germany) at 6.25 mg/L for plasma and 5 mg/L for BAL fluid and ultrafiltrates. The samples were briefly vortexed and then centrifuged at 3000 rpm for 5 min. The supernatants (0.8 mL) were loaded onto solid-phase extraction columns (Oasis HLB solid-phase extraction cartridges, 1 mL, 30 mg, Waters, Saint-Quentin-en-Yvelines, France), preconditioned with 1 mL of methanol and followed by 1 mL of water. Columns were washed with 1 mL of water and dried under nitrogen pressure. The analytes were eluted with 0.5% formic acid in methanol and they were evaporated at 45°C under a gentle nitrogen jet stream. The residues were dissolved in 0.1 mL of 0.1% formic acid in water and analysed by LC-MS/MS. The system included an Alliance Waters 2695 LC system module (Waters) coupled with an API Quattro Micro (Waters). Polymyxin B was analysed on an XBridge C18 column (5 µm, 2.1 × 150 mm; Waters). The mobile phase A consisted of 0.1% formic acid in water, and mobile phase B was 0.1% formic acid in acetonitrile. The gradient for mobile phases A and B were respectively set at 75% and 25% with a flow rate of 0.2 mL/min. Electrospray ionization in positive mode was used for the detection of polymyxin B. Ions were analysed in the multiple reaction monitoring, and the following transitions were inspected: m/z 602.1→101 for polymyxin B1, m/z 595.1→101 for polymyxin B2, m/z 585.1→101 for CSTA and m/z 578.1→101 for CSTB. Calibration curves of polymyxin B ranged from 0.1 to 10 mg/L for plasma and ultrafiltrates, and were quantified with a quadratic regression mode. The intraday variability was characterized at four levels (0.3, 1, 2.5 and 10 mg/L) with a precision and bias of <20% for the lowest level, and <15% for the others.
A population PK model was developed using non-linear mixed-effects modelling (NONMEM, version 7.4.2 ICON Development Solutions, Ellicott City, MD, USA). The analysis was performed using the FOCE + I method on logarithmically transformed concentrations and data below the LOQ were omitted. Parameters were calculated for a virtual 1 kg mouse, resulting in pharmacokinetic parameters corresponding on a per kg base. In the first step a structural model was developed, using one- and two-compartment models. The absorption following subcutaneous injections was described using an absorption rate constant (ka). Typical values for central (Vc) and peripheral volume of distribution (Vp), CL and intercompartmental clearance (Q) were estimated. As bioavailability (F) could not be estimated, CL, Vc, Q, and Vp values corresponded to the ratios CL/F, Vc/F, Q/F and Vp/F, respectively. […]

[2] = Non-specific binding to ultrafiltration filter; assay type: physicochemical; settings: LC-MS/MS
Experimental: The binding of polymyxin B to plasma proteins was determined via ultrafiltration. Polymyxins have a tendency to non-specifically bind to different kinds of material, including ultrafiltration filters. Thus, to correct for polymyxin B loss on the filter, an experiment was performed in which ultrafiltrated (UF) phosphate buffer was spiked with multiple polymyxin B concentrations (ranging from 0.75 to 8 mg/L) and subsequently concentrations were measured. […] Using this relationship, the non-specific binding (NSB) for each measured polymyxin B UF concentration was calculated. Correction for the measured polymyxin B UF concentration using this NSB value was according to the following formula: polymyxin B UF Corrected Concentration = Measured polymyxin B UF Concentration × (1−NSB).
Polymyxin B concentrations in plasma, BAL and ultrafiltrates were determined by a validated LC-MS/MS method,[18] with a lower limit of quantification (LOQ) of 0.2 mg/L for plasma and 0.05 mg/L for BAL fluid and ultrafiltrates. […] The residues were dissolved in 0.1 mL of 0.1% formic acid in water and analysed by LC-MS/MS. […] Polymyxin B was analysed on an XBridge C18 column (5 µm, 2.1 × 150 mm; Waters). […] Calibration curves of polymyxin B ranged from 0.1 to 10 mg/L for plasma and ultrafiltrates, and were quantified with a quadratic regression mode. […]

[3] = tested on: gram-negative pathogens; settings: previous studies; cited from earlier work
Experimental: To determine whether these targets are achieved in humans, the PTAs for the 200 mg q24h dose were calculated. It is clear that the degree of protein binding is essential herein and more clarity on the protein binding in human plasma is needed before an optimal dosing regimen can be recommended, since for a highly protein-bound drug a small error on the fu would yield important PTA differences.

Compound: CC[C@H](C)CCCCC(=O)N[C@@H](CCN)C(=O)N[C@H](C(=O)N[C@@H](CCN)C(=O)N[C@H]1CCNC(=O)[C@H]([C@@H](C)O)NC(=O)[C@H](CCN)NC(=O)[C@H](CCN)NC(=O)[C@H](CC(C)C)NC(=O)[C@@H](Cc2ccccc2)NC(=O)[C@H](CCN)NC1=O)[C@@H](C)O [polymyxin B, Polymyxin B sulphate salt] (X1-[Dab]T[Dab][Dab][Dab][dF]L[Dab][Dab]T; lactam 4-C)
- ka, absorption rate constant for 10 mg/kg dose ([1]; infected neutropenic mice, single s.c. dose 0.5–64 mg/kg, plasma LC-MS/MS, population PK (NONMEM), one-compartment, first-order absorption): 1.63 h⁻¹
- Time up to which plasma levels were detectable ([1]; mouse, s.c., doses 16–64 mg/kg): up to 8 h
- Time up to which plasma levels were detectable ([1]; mouse, s.c., doses up to 8 mg/kg): up to 6 h
- Time to peak (Tmax) ([1]; mouse, s.c., thigh and lung infection model): ≤ 2 h
- CL/F ([1]; mouse, sc, 10 mg/kg, infected neutropenic mice, single s.c. dose 0.5–64 mg/kg, plasma LC-MS/MS, population PK (NONMEM), one-compartment, read-out: CL/F, clearance for 10 mg/kg dose (converted)): 6.4 mL/min/kg
- Vd/F ([1]; mouse, sc, infected neutropenic mice, single s.c. dose 0.5–64 mg/kg, plasma LC-MS/MS, population PK (NONMEM), one-compartment, read-out: Vc/F, central volume of distribution): 0.774 L/kg
- Dose on CL, power on covariate effect of dose on CL ([1]; population PK model, CL = 0.384 × (DOSE/10)^−0.26): −0.26
- Dose on ka, power on covariate effect of dose on ka ([1]; population PK model, ka = 1.63 × (DOSE/10)^−0.407): −0.407
- Non-specific binding (NSB) ([2]; phosphate buffer spiked at 0.75 mg/L): 77% ± 8.3%
- Non-specific binding (NSB) ([2]; phosphate buffer spiked at 8 mg/L): 20% ± 0.6%
- MIC90 [3]: 0.5 to 1 µg/mL
